The values that follow are results of earlier work, collected in patent publication US20140328949A1, “ELECTROCHEMICALLY GENERATED ANTIMICROBIAL SODIUM HYDROXIDE SOLUTION” (priority 2013, published 2014).

The series concerns hairy foot warts. As to conditions: for efficacy of footbath treatment against hairy foot warts: footbaths, formalin 5%, zinc sulfate 3× footbaths, spread and mild lesions.

In the case of `O=S(=O)([O-])[O-].[Cu+2]` [copper sulfate, Copper sulfate], the “efficacy of footbath treatment against hairy foot warts” value (“efficacy of footbath treatment” below) is “not an effective treatment”. On to `C=O` [formalin], for which the “efficacy of footbath treatment” value was “effective in controlling hairy foot wart outbreaks”. As for `O=S(=O)([O-])[O-].[Zn+2]` [Zinc sulfate], the “efficacy of footbath treatment” value is “effective at controlling the spread of hairy foot warts and treating mild lesions”. For the same molecule, where the note is “3× footbaths, 1990 study”, the “efficacy against more serious hairy foot wart lesions” value was “ineffective”.
